Experimental data: patent US20260374773A1, “MULTI-CYCLIC IRAK AND FLT3 INHIBITING COMPOUNDS AND USES THEREOF” (CHILDREN'S HOSPITAL MEDICAL CENTER, priority 2022, published 2026)

Legend:
Format in all cases: cell-based
NF-κB [1] = test: NF-κB SEAP reporter assay in THP-1-Blue NF-κB cells, Pam3CSK4 stimulated; details: THP-1-Blue cells, 1 ng/ml Pam3CSK4, 24 h, read-out: NF-κB Pam3SCK4 IC50
Method: (§1) THP-1-Blue NF-κB cells (InvivoGen) carrying a stable integrated NF-κB-inducible secreted embryonic alkaline phosphatase (SEAP) reporter construct were plated at a concentration of 1×10^5 cells per well. The cells were stimulated with Pam3CSK4 (1 ng/ml) or hIL1B (1 ng/ml). After 10-20 minutes, the cells were then treated with vehicle (DMSO) or serial dilutions of the test compounds (10 doses tested for each test compound, with a […] starting at 1 μM or 3 μM) with a final volume of 200 μL for 24 hours at 37 °C. After 24 hours, the cells were centrifuged and 20 μL supernatant was incubated with 180 μL QUANTI-Blue reagent at 37 °C for 30-60 minutes. The levels of NF-κB-induced was measured in a microplate reader at 620 nm.
as §1, with “1 mM” for “1 μM”, “3 mM)” for “3 μM)”, “200 mL” for “200 μL”, “20 mL” for “20 μL”, “180 mL” for “180 μL”, “NF-κB-induced gene expression were” for “NF-κB-induced was”

NF-κB [2] = test: NF-κB SEAP reporter assay in THP-1-Blue NF-κB cells, hIL1B stimulated; details: THP-1-Blue cells, 1 ng/ml hIL1B, 24 h, read-out: NF-κB IL1B IC50
Method: as §1
as §1, with “1 mM” for “1 μM”, “3 mM)” for “3 μM)”, “200 mL” for “200 μL”, “20 mL” for “20 μL”, “180 mL” for “180 μL”, “NF-κB-induced gene expression were” for “NF-κB-induced was”

IRAK4 = target: T1, IRAK4 (Homo sapiens, UniProt Q9NWZ3); test: NanoBRET target engagement assay in HEK-293 cells, IRAK4; details: live HEK-293 cells, 1 h
T1 sequence (Q9NWZ3 1-460): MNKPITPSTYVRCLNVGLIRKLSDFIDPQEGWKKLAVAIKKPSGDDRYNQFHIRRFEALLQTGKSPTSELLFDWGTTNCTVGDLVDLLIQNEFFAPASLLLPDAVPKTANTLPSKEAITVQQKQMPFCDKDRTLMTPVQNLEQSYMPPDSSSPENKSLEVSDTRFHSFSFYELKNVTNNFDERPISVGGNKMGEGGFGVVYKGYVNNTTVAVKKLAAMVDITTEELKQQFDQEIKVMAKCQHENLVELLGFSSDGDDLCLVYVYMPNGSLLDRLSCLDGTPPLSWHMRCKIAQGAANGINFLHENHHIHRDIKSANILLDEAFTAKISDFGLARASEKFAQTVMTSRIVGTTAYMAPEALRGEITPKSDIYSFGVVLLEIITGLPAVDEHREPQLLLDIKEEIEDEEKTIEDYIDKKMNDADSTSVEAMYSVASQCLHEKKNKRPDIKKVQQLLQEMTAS
Description: The NanoBRET assay measures kinase engagement in real time in the context of the intact cell. Unlike the previously described biochemical kinase assay methodology, the NanoBRET assay measures the binding and activity characteristics under equilibrium conditions using full-length kinases in the presence of cellular concentrations of ATP in live, uncompromised cells. As such, the assay provides a more relevant assessment of kinase potency and selectivity that would be expected to be observed in the native cellular environment, where potency is often considerably lower than that observed in the isolated biochemical assays (Vasta, J. D. et al., (2018) Cell Chem. Biol. 25, 206-214). The assay uses a Kinase-NanoLuc® fusion vector expressing a kinase protein to which a luciferase tag has been added, a cell-permeant fluorescent NanoBRET™ tracer, a NanoLuc® substrate, and an extracellular NanoLuc® inhibitor. Upon expression of the luciferase-tagged kinase, cells will produce a strong BRET signal only in the presence of the NanoBRET™ tracer. The extracellular NanoLuc® inhibitor ensures that the BRET signal observed emanates only from live cells. Because the BRET signal has tight distance constraints, addition of the test compound will decrease the BRET signal if the compound competes with the NanoBRET™ tracer for binding to the kinase domain. Under the appropriate tracer conditions established by the manufacturer, quantitative intracellular affinity and relative potency can then be determined using Mass Action model equations.
HEK-293 cells were purchased from ATCC. FuGENEHD Transfection Reagent, Kinase-NanoLucfusion plasmids, Transfection Carrier DNA, NanoBRETTracers and dilution buffer, NanoBRETNano-Glo Substrate, Extracellular NanoLucInhibitor were obtained from Promega.
Assays were conducted following Promega assay protocol with some modifications. HEK-293 Cells were transiently transfected with Kinase-NanoLucFusion Vector DNA by FuGENEHD Transfection Reagent. Testing compounds were delivered into 384 well assay plate by Echo 550 (LabcyteInc, Sunnyvale, CA). Transfected cells were harvested and mixed with NanoBRETTracer Reagent and dispensed into 384 well plates and incubated at 37 °C in 5% CO2 cell culture incubator for 1 hour. The NanoBRETNano-Glo Substrate plus Extracellular NanoLucInhibitor Solution were added into the wells of the assay plate and incubated for 2-3 minutes at room temperature. The donor emission wavelength (460 nm) and acceptor emission wavelength (600 nm) were measured in the En Visionplate reader. The BRET Ratios were calculated.
BRET Ratio=[(Acceptor sample÷Donor sample)−(Acceptor no-tracer control÷Donor no-tracer control)].
The IC50 values of compounds were calculated with Prism GraphPad program.
• 1). Cultivate HEK-293 cells (70-80% confluence) appropriately prior to assay. Trypsinize and collect HEK-293 cells. • 2). Prepare lipid:DNA complexes as follows: • a. Prepare a 10 μg/ml solution of DNA in Opti-MEM without serum that consists of the following ratios of carrier DNA and DNA encoding NanoLuc® fusion. 9.0 μg/mL of Transfection Carrier DNA, 1.0 μg/mL of NanoLuc fusion vector DNA and 1 mL of Opti-MEM without phenol red. Mix thoroughly. • b. Add 30 μl of FuGENE HD Transfection Reagent into each milliliter of DNA mixture to form lipid:DNA complex. • c. Mix by inversion 10 times. • d. Incubate at ambient temperature for 20 minutes to allow complexes to form. • 3). In a sterile, conical tube, mix 1 part of lipid:DNA complex with 20 parts of HEK-293 cells in suspension. Mix gently by inversion 5 times. • 4). Dispense cells+lipid:DNA complex into a sterile tissue culture dish and incubate for 22-24 hours.
Each test compound is delivered from the compound source plate to the wells of 384-well white NBS plate by Echo 550.
3. Preparation of Cells with NanoBRET™ Tracer Reagent • 1). Remove medium from dish with transfected HEK-293 cells via aspiration, trypsinize and allow cells to dissociate from the dish. • 2). […]

| IC50 (NF-κB [1]; Table 15) [nM] | IC50 (NF-κB [2]; Table 15) [nM] | IC50 (IRAK4; Table 14) [nM] | IC50 (IRAK4; Table 20) [nM] | IC50 (NF-κB [1]; Table 21) [nM] | IC50 (NF-κB [2]; Table 21) [nM] | SMILES |
| --- | --- | --- | --- | --- | --- | --- |
| – | – | – | 3 | – | – | COc1cn2ncc(-c3nc(N[C@@H]4CCCNC4)ncc3F)c2nc1C(C)(C)O [Compound 4a, (R)-2-(3-(5-fluoro-2-(piperidin-3-ylamino)pyrimidin-4-yl)-6-methoxypyrazolo[1,5-a]pyrimidin-5-yl)propan-2-ol] |
| – | – | – | 2 | – | – | COc1cn2ncc(-c3nc(N[C@H]4CNC[C@@H]4F)ncc3F)c2nc1C(C)(C)O [Compound 5a, 2-(3-(5-fluoro-2-(((3S,4S)-4-fluoropyrrolidin-3-yl)amino)pyrimidin-4-yl)-6-methoxypyrazolo[1,5-a]pyrimidin-5-yl)propan-2-ol] |
| – | – | – | < 0.5 | 57 | 52 | COc1cn2ncc(-c3nc(N[C@H]4CNCC[C@@H]4F)ncc3F)c2nc1C(C)(C)O [Compound 6a, 2-(3-(5-fluoro-2-(((3S,4S)-4-fluoropiperidin-3-yl)amino)pyrimidin-4-yl)-6-methoxypyrazolo[1,5-a]pyrimidin-5-yl)propan-2-ol] |
| – | – | – | 0.8 | 55 | 50 | COc1cn2ncc(-c3ccnc(N[C@H]4CNCC[C@@H]4F)n3)c2nc1C1CC1 [Compound 7a, 4-(5-cyclopropyl-6-methoxypyrazolo[1,5-a]pyrimidin-3-yl)-N-((3S,4S)-4-fluoropiperidin-3-yl)pyrimidin-2-amine] |
| – | – | – | 0.6 | 72 | 46 | COc1cn2ncc(-c3ccnc(N[C@H]4CNC[C@@H]4F)n3)c2nc1C1CC1 [Compound 8a, 4-(5-cyclopropyl-6-methoxypyrazolo[1,5-a]pyrimidin-3-yl)-N-((3S,4S)-4-fluoropyrrolidin-3-yl)pyrimidin-2-amine] |
| – | – | – | < 0.5 | 331 | 244 | COc1cn2ncc(-c3cncc(N[C@@H]4CCCNC4)n3)c2nc1C1CC1 [Compound 11a, (R)-6-(5-cyclopropyl-6-methoxypyrazolo[1,5-a]pyrimidin-3-yl)-N-(piperidin-3-yl)pyrazin-2-amine] |

Further lines, the molecule ahead of its results:

| SMILES | IC50 (NF-κB [1]; Table 15) [nM] | IC50 (NF-κB [2]; Table 15) [nM] | IC50 (IRAK4; Table 14) [nM] | IC50 (IRAK4; Table 20) [nM] | IC50 (NF-κB [1]; Table 21) [nM] | IC50 (NF-κB [2]; Table 21) [nM] |
| --- | --- | --- | --- | --- | --- | --- |
| COc1cn2ncc(-c3nc(N[C@@H]4CCCNC4)ccc3F)c2nc1C1CC1 [Compound 2, (R)-6-(5-cyclopropyl-6-methoxypyrazolo[1,5-a]pyrimidin-3-yl)-5-fluoro-N-(piperidin-3-yl)pyridin-2-amine] | 71 | 94 | – | – | – | – |
| COc1cn2ncc(-c3nc(N[C@H]4CNCC[C@@H]4F)ccc3F)c2nc1C1CC1 [Compound 3, 6-(5-cyclopropyl-6-methoxypyrazolo[1,5-a]pyrimidin-3-yl)-5-fluoro-N-((3S,4S)-4-fluoropiperidin-3-yl)pyridin-2-amine] | 22 | 26 | < 0.5 | – | – | – |
| COc1cn2ncc(-c3ccnc(N[C@H]4CNCC[C@@H]4F)n3)c2nc1C(C)(C)O [Compound 3a, 2-(3-(2-(((3S,4S)-4-fluoropiperidin-3-yl)amino)pyrimidin-4-yl)-6-methoxypyrazolo[1,5-a]pyrimidin-5-yl)propan-2-ol] | – | – | – | 8 | – | – |
| COc1cn2ncc(-c3ccc(F)c(N[C@@H]4CCCNC4)n3)c2nc1C1CC1 [Compound 5, (R)-6-(5-cyclopropyl-6-methoxypyrazolo[1,5-a]pyrimidin-3-yl)-3-fluoro-N-(piperidin-3-yl)pyridin-2-amine] | – | – | 3 | – | – | – |
| COc1cn2ncc(-c3ccc(F)c(N[C@H]4CNCC[C@@H]4F)n3)c2nc1C1CC1 [Compound 6, 6-(5-cyclopropyl-6-methoxypyrazolo[1,5-a]pyrimidin-3-yl)-3-fluoro-N-((3S,4S)-4-fluoropiperidin-3-yl)pyridin-2-amine] | 300 | 219 | < 0.5 | – | – | – |
| COc1cn2ncc(-c3nc(N[C@@H]4CCCNC4)c(C#N)cc3F)c2nc1C(C)(C)O [Compound 9, (R)-5-fluoro-6-(5-(2-hydroxypropan-2-yl)-6-methoxypyrazolo[1,5-a]pyrimidin-3-yl)-2-(piperidin-3-ylamino)nicotinonitrile] | 39 | 88 | – | – | – | – |
| COc1cn2ncc(-c3nc(N[C@H]4CNCC[C@@H]4F)c(C#N)cc3F)c2nc1C(C)(C)O [Compound 10, 5-fluoro-2-(((3S,4S)-4-fluoropiperidin-3-yl)amino)-6-(5-(2-hydroxypropan-2-yl)-6-methoxypyrazolo[1,5-a]pyrimidin-3-yl)nicotinonitrile] | 22 | 41 | – | – | – | – |
| COc1cn2ncc(-c3nc(N[C@@H]4CCCNC4)c(F)cc3F)c2nc1C(C)(C)O [Compound 11, (R)-2-(3-(3,5-difluoro-6-(piperidin-3-ylamino)pyridin-2-yl)-6-methoxypyrazolo[1,5-a]pyrimidin-5-yl)propan-2-ol] | 128 | 101 | < 0.5 | – | – | – |
| COc1cn2ncc(-c3cccc(N[C@H]4CNC[C@@H]4F)n3)c2nc1C1CC1 [Compound 19, 6-(5-cyclopropyl-6-methoxypyrazolo[1,5-a]pyrimidin-3-yl)-N-((3S,4S)-4-fluoropyrrolidin-3-yl)pyridin-2-amine] | 61 | 97 | – | – | – | – |
| COc1cn2ncc(-c3cccc(N[C@@H]4CCCNC4)n3)c2nc1C1CC1 [Compound 20, (R)-6-(5-cyclopropyl-6-methoxypyrazolo[1,5-a]pyrimidin-3-yl)-N-(piperidin-3-yl)pyridin-2-amine] | 441 | 646 | – | – | – | – |
